The subject of series [1] is human immunodeficiency virus type 1 (HIV-1). Nature of the series: Inhibition of HIV-1 proliferation in PHA-activated human PBL's (p24 core protein by Sandwich ELISA, HIV RNA by labelled DNA probe hybridization). Type of series: cell-based. Conditions: for inhibition of p24 core protein production: 10 ng/mℓ. How it is done:
Compounds I - XXVIII were subjected to in vitro testing for inhibition of human immunodeficiency virus type 1 (HIV-1) proliferation as follows:
Human peripheral blood lymphocytes (PBL's) obtained by density gradient centrifugation of blood from healthy volunteers at a blood bank were pooled and used for the propagation of HIV-1 in vitro.
The PBL's were polyclonally activated with phytohaemagglutinin (PHA) and subjected to quality controls whereby their viability was tested with Trypan blue exclusion and the expression of activation antigens, CD4⁺ and CD25⁺ was measured by immunofluorescence. Prior to adding the test substance, the activated PBL's were exposed to a standardized titre of HIV-1 virus and after incubation for 60 minutes the cells were washed twice and plated into microtitre plates at a concentration of 2X10⁶ cells/well. The medium contained interleukin-2 and in control wells the virus produced between 50 and 100 ng/mℓ of p24 core protein on day 4. The test substance was added to these cultures either in water or dimethyl sulphoxide (DMSO) depending on solubility characteristics. The final DMSO concentration, when used, was always 1% v/v.
HIV replication was measured as the production of p24 core protein and the production of HIV RNA on days 2, 3 and 4, or on days 3, 4, 5 and 6. Core protein p24 was measured using 'Sandwich ELISA' technology using inter alia a monoclonal antibody against p24 core protein. The HIV RNA was measured using a specific labelled DNA probe against HIV RNA and the process of hybridization.
Results were expressed as percent inhibition of HIV-1 p24 core protein production or RNA production on days 3, 4 or 6.
In each test, cells were also exposed to HIV-1 and 3'-azido-3'-deoxythymidine (also known as Zidovudine or AZT) at 100, 10, 1 and 0.1 ng/mℓ. This was a positive control and compounds tested were compared to the inhibitory effect of 10 ng/mℓ AZT.
In all of the following Tables, percentage inhibition refers to inhibition of p24 core protein production and HIV RNA production relative to infected controls. Percentage AZT inhibition refers to inhibition caused by 10 ng/mℓ AZT at the end of the experiment, i.e. after 4 or 6 days.

For another series, the system named is CD4⁺ cells. The conditions noted are these: standard doses (250 mg/4 hours) and reduced doses (100 mg/4 hours) for 30 months; Fisch et al; cited from earlier work.
Series [2] is described as follows: Toxicity: lymphocyte proliferation assay with MTT in the HIV-1 infected PBL cultures. Conditions: human, pbls. Type of series: cell-based. The procedure: Possible toxic effects of the test substances were measured by viability testing using Trypan blue or a proliferation assay using3-(4,5-dimethylthiazol-2-yl)-2,5-diphenyl-2H-tetrazolium bromide (MTT) on day 4 or day 6 after initiation of the experiment (Borenfreund et al: Toxicol. In Vitro, 1988, 2, 1-6).
The toxicity of the drug was expressed as a percentage inhibition of lymphocyte proliferation as measured with MTT and compared with controls receiving the virus but no drug.

Where two headings read alike, the source gives them in different places.

Regarding `Cc1cn([C@H]2C[C@H](N=[N+]=[N-])[C@@H](CO)O2)c(=O)[nH]c1=O` [AZT, 3'-azido-3'-deoxythymidine, reference compound], the “inhibition of p24 core protein production” value came to 20% in series [1] (positive control of Table 2 (6 days, standard titre)); 50% in series [1] (positive control of Table 4 (after 3 days)); 50% in series [1] (positive control of Table 5 (after 6 days)); 20% in series [1] (positive control of Table 6 (6 days, standard viral titre)); 50% in series [1] (positive control of Table 8 (3 days incubation)); 50% in series [1] (positive control of Table 12 (3 days incubation)). Also, the inhibition at 0.01 µg/mL was 46% in series [1] (Human immunodeficiency virus 1, 72 h, read-out: inhibition of HIV-RNA production, 10 ng/mℓ, positive control of Table 4 (after 3 days)); 46% in series [1] (Human immunodeficiency virus 1, 72 h, read-out: inhibition of HIV-RNA production, 10 ng/mℓ, positive control of Table 8 (3 days incubation)); 46% in series [1] (Human immunodeficiency virus 1, 72 h, read-out: inhibition of HIV-RNA production, 10 ng/mℓ, positive control of Table 12 (3 days incubation)); 96% in series [1] (Human immunodeficiency virus 1, 96 h, read-out: inhibition of HIV RNA production, 10 ng/mℓ, positive control of the crude extract test (4 days)); 100% in series [1] (Human immunodeficiency virus 1, 96 h, read-out: inhibition of HIV-RNA production, 10 ng/mℓ, day 4, positive control of Table 13); 97% in series [1] (Human immunodeficiency virus 1, 96 h, read-out: inhibition of HIV-RNA production, 10 ng/mℓ, positive control of Table 11 (4 days)). Also, the inhibition at 0.01 µg/mL in series [1] (Human immunodeficiency virus 1, 144 h, read-out: inhibition of HIV-RNA production, 10 ng/mℓ, day 6, positive control of Table 13) was 100%; in series [1] (Human immunodeficiency virus 1, 144 h, read-out: inhibition of HIV-RNA production, 10 ng/mℓ, positive control of Table 2 (6 days, standard titre)) it was 68%; in series [1] (Human immunodeficiency virus 1, 144 h, read-out: inhibition of HIV-RNA production, 10 ng/mℓ, positive control of Table 5 (after 6 days)), 46%; in series [1] (Human immunodeficiency virus 1, 144 h, read-out: inhibition of HIV-RNA production, 10 ng/mℓ, positive control of Table 6 (6 days, standard viral titre)), 68%; in series [1] (Human immunodeficiency virus 1, 144 h, read-out: inhibition of HIV-RNA production, 10 ng/mℓ, positive control of Table 8 continued (6 days incubation)) it was 92%; in series [1] (Human immunodeficiency virus 1, 144 h, read-out: inhibition of HIV-RNA production, 10 ng/mℓ, positive control of Table 9 (6 days)), 92%. Besides, the inhibition at 0.01 µg/mL in series [1] (Human immunodeficiency virus 1, 144 h, read-out: inhibition of HIV-RNA production, 10 ng/mℓ, positive control of Table 10 (6 days)) is 92%; in series [1] (Human immunodeficiency virus 1, read-out: inhibition of HIV-RNA production, 10 ng/mℓ, positive control of Table 7 (ten-fold dilution of standard viral titre)), 99%; in series [1] (Human immunodeficiency virus 1, read-out: inhibition of HIV-RNA, 10 ng/mℓ, positive control of Table 3 (viral titre lowered ten-fold)) it was 99%. Also, the “transient mean increase of CD4⁺ cells” value with CD4⁺ cells was 25 cells/mm³ of blood.

With `OC[C@H]1O[C@@H](Oc2ccc(C#CC/C=C/c3ccc(O[C@@H]4O[C@H](CO)[C@@H](O)[C@H](O)[C@H]4O)c(O)c3)cc2O)[C@H](O)[C@@H](O)[C@@H]1O` [Compound V, E-1,5-bis(3'-hydroxy-4'-O-β-D-glucopyranosylphenyl)pent-4-en-1-yne], the “% inhibition:p24 core protein” value turned out to be 5% in series [1] (6.25 µg/mℓ, dissolved in water, after 6 days, standard titre of HIV-1); 5% in series [1] (12.5 µg/mℓ, dissolved in water, after 6 days, standard titre of HIV-1); 9% in series [1] (25 µg/mℓ, dissolved in water, after 6 days, standard titre of HIV-1); 90% in series [1] (25 µg/ℓ, viral titre lowered ten-fold). Moreover, the inhibition at 6.25 µg/mL in series [1] (Human immunodeficiency virus 1, 144 h, read-out: % inhibition: HIV-RNA, 6.25 µg/mℓ, dissolved in water, after 6 days, standard titre of HIV-1) worked out at 42%. Besides, the inhibition at 12.5 µg/mL in series [1] (Human immunodeficiency virus 1, 144 h, read-out: % inhibition: HIV-RNA, 12.5 µg/mℓ, dissolved in water, after 6 days, standard titre of HIV-1) is 65%. Besides, the inhibition at 25 µg/mL in series [1] (Human immunodeficiency virus 1, 144 h, read-out: % inhibition: HIV-RNA, 25 µg/mℓ, dissolved in water, after 6 days, standard titre of HIV-1) worked out at 83%. In addition, in series [1] (Human immunodeficiency virus 1, 144 h, read-out: % inhibition: HIV-RNA, 50 µg/mℓ, dissolved in water, after 6 days, standard titre of HIV-1), the inhibition at 50 µg/mL was 100%. For the same compound, the inhibition at 0.00625 µg/mL in series [1] (Human immunodeficiency virus 1, read-out: % inhibition:HIV-RNA, 6.25 µg/ℓ, viral titre lowered ten-fold) came out at 0%. Also, the inhibition at 0.0125 µg/mL in series [1] (Human immunodeficiency virus 1, read-out: % inhibition:HIV-RNA, 12.5 µg/ℓ, viral titre lowered ten-fold) was determined as 11%. Also, the inhibition at 0.025 µg/mL in series [1] (Human immunodeficiency virus 1, read-out: % inhibition:HIV-RNA, 25 µg/ℓ, viral titre lowered ten-fold) was 97%. Further, the inhibition at 0.05 µg/mL in series [1] (Human immunodeficiency virus 1, read-out: % inhibition:HIV-RNA, 50 µg/ℓ, viral titre lowered ten-fold) was 99%. Moreover, the viability stood at 94% in series [2] (6.25 µg/mℓ, dissolved in water, standard titre of HIV-1, read-out: Proliferation as a percentage of control value); 94% in series [2] (6.25 µg/ℓ, viral titre lowered ten-fold, read-out: Proliferation as a percentage of control value); 94% in series [2] (12.5 µg/mℓ, dissolved in water, standard titre of HIV-1, read-out: Proliferation as a percentage of control value); 94% in series [2] (12.5 µg/ℓ, viral titre lowered ten-fold, read-out: Proliferation as a percentage of control value); 93% in series [2] (25 µg/mℓ, dissolved in water, standard titre of HIV-1, read-out: Proliferation as a percentage of control value); 93% in series [2] (25 µg/ℓ, viral titre lowered ten-fold, read-out: Proliferation as a percentage of control value). Also, the viability in series [2] (50 µg/mℓ, dissolved in water, standard titre of HIV-1, read-out: Proliferation as a percentage of control value) turned out to be 82%; in series [2] (50 µg/ℓ, viral titre lowered ten-fold, read-out: Proliferation as a percentage of control value), 82%.

For the compound `O=S(=O)(O)Oc1ccc(C#CC/C=C/c2ccc(OS(=O)(=O)O)cc2)cc1` [Compound XVIII], the “% inhibition:p24 core protein” value in series [1] (50 µg/mℓ, after 6 days) is recorded as 79%. In addition, the inhibition at 50 µg/mL in series [1] (Human immunodeficiency virus 1, 144 h, read-out: % inhibition:HIV-RNA, 50 µg/mℓ, after 6 days) turned out to be 87%. In addition, in series [1] (Human immunodeficiency virus 1, 144 h, read-out: % inhibition:HIV-RNA, 100 µg/mℓ, after 6 days), the inhibition at 100 µg/mL is 100%. Moreover, the viability was 63% in series [2] (50 µg/mℓ, Table 10 (6 days), read-out: Proliferation as a percentage of control value) and 50% in series [2] (100 µg/mℓ, Table 10 (6 days), read-out: Proliferation as a percentage of control value).

Source of the values: patent EP0587396A1, “Use of hypoxoside derivatives for the treatment of viral infections” (VIROSTAT (NA) NV, priority 1992, dated 1994).
